Source: PMC11352108, “Anti-Biofilm and Anti-Inflammatory Properties of the Truncated Analogs of the Scorpion Venom-Derived Peptide IsCT against Pseudomonas aeruginosa” (Antibiotics, 2024)
Several values for one entry are separate records, joined by “and”; a condition that tells them apart may be missing. Identical values can stand only once. Where no end group is shown, it is not given here.

Legend:
[1] = tested on: P. aeruginosa PAO1 biofilms; test: Biofilm susceptibility assay (crystal violet); assay type: cell-based, Pseudomonas aeruginosa; settings: 150 μM, 24 h, 37 °C, 10^6 CFU/mL, OD 550 nm, compared with untreated control
Experimental: The effect of the truncated IsCT analogs on biofilms of P. aeruginosa was assessed using a method that was described previously. Briefly, 100 μL of the test peptides (final concentration, 150 μM) was added to each well of a 96-well microtiter plate (Nunc^TM, Roskilde, Denmark). Then, an aliquot of P. aeruginosa PAO1 culture was added to each well to obtain a final concentration of 10^6 CFU/mL. The bacterial culture alone was included as an untreated control. Following a 24-h incubation at 37 °C, unattached planktonic cells were discarded, and the wells were carefully washed twice with PBS with a pH of 7.4. Thereafter, biofilm biomasses were quantified by 0.1% crystal violet staining. After excess stains were discarded, the wells were washed with PBS pH 7.4 and left to air dry for 2 h at 37 °C. The biofilm biomass was subsequently dissolved by the addition of 30% acetic acid, and the plates were spectrophotometrically read at 550 nm using a BioTek Synergy HT microplate reader.

[2] = tested on: RAW 264.7 macrophages; test: Cytotoxicity assay (MTT); assay type: cell-based, murine; settings: 48 h; for % Viability, Exp.1: replicate Exp.1; for % Viability, Exp.2: replicate Exp.2
Experimental: The murine macrophage cell line RAW264.7 (TIB-71) was obtained from American Type Culture Collection (ATCC; Manassas, VA, USA). RAW 264.7 cells were cultured in DMEM (HyClone^TM, Logan, UT, USA) supplemented with 10% (v/v) heat-inactivated fetal bovine serum (Gibco, Fisher Scientific, Göteborg, Sweden), 2 mM L-glutamine (PAA Laboratories GmbH, Pasching, Austria), 10 mM 4-(2-hydroxyethyl)-1-piperazineethanesulfonic acid (HyClone^TM, Logan, UT, USA), 100 U/mL penicillin, and 100 µg/mL streptomycin (PAA). RAW 264.7 cells were grown in a 5% CO2 at 37 °C.
The cytotoxic effect of the IsCT-Δ6-8 peptide was assessed using the tetrazolium-based 3-(4,5-dimethylthiazol-2-yl)-2,5-diphenyltetrazolium bromide (MTT) assay. RAW 264.7 cells at 3.5 × 10^5 cells were seeded in a 96-well microtiter plate and incubated at 37 °C for 1 h under 5% CO2. Then, the cells were treated with or without the IsCT-Δ6-8 peptide at concentrations ranging from 37.5 μM to 150 μM for 48 h at 37 °C under 5% CO2. After incubation, 20 µL of MTT (5 mg/mL) was added in each well, and the plate was incubated for another 3 h. The supernatant was then discarded, and 100 µL of DMSO was added to solubilize formazan crystals. The plate was subsequently read at OD540 nm using a BioTek Synergy HT microplate reader. The percent cell viability was calculated using the following equation:(2) % Cell viability=OD of treated cells/OD of untreated cells×100

[3] = tested on: P. aeruginosa PAO1; test: Growth curve assay; assay type: cell-based, Pseudomonas aeruginosa; settings: 150 μM; for OD600nm, Mean / OD600nm, Exp.1 / OD600nm, Exp.2: 37 °C, 150 rpm; for OD600nm, Mean: mean of 2 experiments; for OD600nm, Exp.1: replicate Exp.1; for OD600nm, Exp.2: replicate Exp.2
Experimental: The effect of the IsCT-Δ6-8 peptide on the growth of P. aeruginosa was assessed as previously described. A culture of P. aeruginosa PAO1 was grown at a concentration of 10^6 CFU/ mL in the presence or absence of the IsCT-Δ6-8 peptide (final concentration, 150 µM) at 37 °C, with agitation at 150 rpm. The OD600 nm was then recorded at 0, 6, 12, 18, and 24 h.

[4] = tested on: pyocyanin production by P. aeruginosa PAO1; test: Pyocyanin assay (chloroform extraction); assay type: cell-based, Pseudomonas aeruginosa; settings: 24 h, 37 °C; for Pyocyanin production (%control), Exp.1: replicate Exp.1; for Pyocyanin production (%control), Mean: mean of Exp.1-3; for Pyocyanin production (%control), Exp.2: replicate Exp.2; for Pyocyanin production (%control), Exp.3: replicate Exp.3
Experimental: The effect of IsCT-Δ6-8 peptide on the production of pyocyanin pigments produced by P. aeruginosa PAO1 was assessed using the protocol described previously. In brief, 750 μL of P. aeruginosa culture (10^8 CFU/mL, final concentration) and 250 μL of the test peptide prepared in LB broth (final concentrations ranged from 37.5 μM to 150 μM) were incubated at 37 °C for 24 h with agitation (150 rpm). A P. aeruginosa culture without the IsCT-Δ6-8 peptide served as an untreated control. Thereafter, supernatants were collected by centrifugation at 3900× g for 10 min, and pyocyanin pigment was extracted twice using chloroform/0.2 N HCl. Centrifugation was performed at 3900× g for 10 min before the pink-colored solution was collected, and the absorbance was measured at […].

[5] = tested on: IL-6 production in P. aeruginosa LPS-stimulated RAW 264.7 macrophages; test: IL-6 measurement (sandwich ELISA); assay type: cell-based, murine; settings: 48 h; for IL-6 (pg/mL), Exp.1: replicate Exp.1; for IL-6 (pg/mL), Mean: mean of 2 experiments, LPS alone 4081.029; for IL-6 (pg/mL), Exp.2: replicate Exp.2
Experimental: RAW 264.7 cells (3.5 × 10^5) were stimulated with P. aeruginosa lipopolysaccharide (100 ng/mL; Sigma, St. Louis, MO, USA) in the presence or absence of the IsCT-Δ6-8 peptide (37.5–150 μM, final concentration). After incubation at 37 °C under 5% CO2 for 48 h, supernatants were collected. The levels of nitrite (a stable breakdown of NO) were then determined using the Griess reagent system (Promega, Madison, Wisconsin, USA). The IL-6 levels in culture supernatant were quantified with the BioLegend ELISA MAXTM Deluxe Set according to the manufacturer’s protocols.

[6] = peptide 37.5 µM with LPS 100 ng/mL
[7] = peptide 75 µM with LPS 100 ng/mL
[8] = peptide 150 µM with LPS 100 ng/mL

ILGKIIKSLF [IsCT-Δ6-8] was tested, and the “Decrease in P. aeruginosa biofilm biomass” value [1] was 33.12% and 33%, the “% Viability, Exp.1” value ([2]; 37.5 µM, 37 °C, 5% CO2, MTT, OD 540 nm) was 109.403% and the “% Viability, Exp.2” value ([2]; 37.5 µM, MTT) was 94.438%. For the same sequence, the “% Viability, Exp.1” value ([2]; 75 µM, MTT) was 102.742%, the “% Viability, Exp.2” value ([2]; 75 µM, MTT) was 96.302% and the “% Viability, Exp.1” value ([2]; 150 µM, MTT) was 94.479%. The “% Viability, Exp.2” value ([2]; 150 µM, MTT) was 100.171%, the “Viability of RAW 264.7 macrophages (in words)” value ([2]; 37.5–150 μM, MTT, compared with untreated control) was “not significantly changed” and the “OD600nm, Mean” value ([3]; 0 h) was 0.0000. For the same sequence, the “OD600nm, Exp.1” value ([3]; 0 h) was 0.0000, the “OD600nm, Exp.2” value ([3]; 0 h) was 0.0000 and the “OD600nm, Mean” value ([3]; 6 h, untreated control 0.3954) was 0.2100. The “OD600nm, Exp.1” value ([3]; 6 h, untreated control 0.3955) was 0.2055, the “OD600nm, Exp.2” value ([3]; 6 h, untreated control 0.3953) was 0.2145 and the “OD600nm, Mean” value ([3]; 12 h, untreated control 0.5425) was 0.4723. For the same sequence, the “OD600nm, Exp.1” value ([3]; 12 h, untreated control 0.5353) was 0.4765, the “OD600nm, Exp.2” value ([3]; 12 h, untreated control 0.5498) was 0.4680 and the “OD600nm, Mean” value ([3]; 18 h, untreated control 0.6067) was 0.5898. For the same sequence, the “OD600nm, Exp.1” value ([3]; 18 h, untreated control 0.6213) was 0.5830, the “OD600nm, Exp.2” value ([3]; 18 h, untreated control 0.5922) was 0.5965 and the “OD600nm, Mean” value ([3]; 24 h, untreated control 0.6209) was 0.6033. For the same sequence, the “OD600nm, Exp.1” value ([3]; 24 h, untreated control 0.6330) was 0.5450, the “OD600nm, Exp.2” value ([3]; 24 h, untreated control 0.6088) was 0.6615 and the “Growth of P. aeruginosa at early time points (in words)” value ([3]; 6 h and 12 h, compared to untreated control culture) was “slow growth rate”. For the same sequence, the “Growth of P. aeruginosa after prolonged exposure (in words)” value ([3]; 18 h and 24 h, versus untreated control (p > 0.05)) was “comparable to that of the untreated control culture”, the “Pyocyanin production (%control), Exp.1” value ([4]; 37.5 µM, 10^8 CFU/mL, LB broth, absorbance 380 nm) was 124.961 %control and the “Pyocyanin production (%control), Mean” value ([4]; 37.5 µM) was 82.972 %control. For the same sequence, the “Pyocyanin production (%control), Exp.2” value ([4]; 37.5 µM) was 54.723 %control, the “Pyocyanin production (%control), Exp.3” value ([4]; 37.5 µM) was 69.231 %control and the “Pyocyanin production (%control), Mean” value ([4]; 75 µM) was 69.677 %control. The “Pyocyanin production (%control), Exp.1” value ([4]; 75 µM) was 120.493 %control, the “Pyocyanin production (%control), Exp.2” value ([4]; 75 µM) was 42.094 %control and the “Pyocyanin production (%control), Exp.3” value ([4]; 75 µM) was 46.444 %control. The “Pyocyanin production (%control), Mean” value ([4]; 150 µM) was 48.905 %control, the “Pyocyanin production (%control), Exp.1” value ([4]; 150 µM) was 76.348 %control and the “Pyocyanin production (%control), Exp.2” value ([4]; 150 µM) was 36.550 %control. For the same sequence, the “Pyocyanin production (%control), Exp.3” value ([4]; 150 µM) was 33.817 %control, the “Effect on LPS-induced IL-6 elevation (in words)” value ([5]; 37.5–150 μM, especially at 150 μM (p < 0.05 vs LPS-stimulated)) was “reduced” and the “IL-6 (pg/mL), Exp.1” value ([5]; peptide 37.5 µM with LPS 100 ng/mL, 37 °C) was 4036.912 pg/mL. The “IL-6 (pg/mL), Mean” value [5, 6] was 3742.794 pg/mL, the “IL-6 (pg/mL), Exp.2” value [5, 6] was 3448.676 pg/mL and the “IL-6 (pg/mL), Mean” value [5, 7] was 3664.363 pg/mL. For the same sequence, the “IL-6 (pg/mL), Exp.1” value [5, 7] was 3953.578 pg/mL, the “IL-6 (pg/mL), Exp.2” value [5, 7] was 3375.147 pg/mL and the “IL-6 (pg/mL), Mean” value [5, 8] was 3304.069 pg/mL. The “IL-6 (pg/mL), Exp.1” value [5, 8] was 3514.853 pg/mL and the “IL-6 (pg/mL), Exp.2” value [5, 8] was 3093.284 pg/mL.
